Test [1] concerns Full-thickness reconstructed skin (T-Skin, Episkin). In words: sGAG release in full-thickness reconstructed skin (sulfated glycosaminoglycan assay kit). It counts as cell-based. Conditions: PX 0.02% and 0.06% in medium, Day 11 through Day 15, medium supernatant, n=3, FIG. 7. How it is done: Full-thickness reconstructed skin (T-Skin, Episkin) was treated systemically with hydroxypropyl tetrahydropyrantriol (PX, 0.02% and 0.06%) based on the T-skin evaluation test. Tissues are received on medium at day 11 and stored at 37C (95% humidity and 5% CO2) until the end of treatments at […]. The tissue receive medium and medium+hydroxypropyl tetrahydropyrantriol starting from Day 11 through Day 15 (n=3). At Day 15, the medium supernatant was collected to be measured with the sulfated glycosaminoglycan assay kit (ab289846, Abcam). For analysis, sGAG release of the supernatant was quantified based on vendor protocol.

For test [2], the system named is Normal adult human epidermal keratinocytes (NHEK-Ad). The experiment in a line: keratinocyte proliferation (Ki67 vs DAPI staining). It counts as cell-based. Conditions: 48 hours, FIG. 9 and FIG. 10. How it is done: Normal adult human epidermal keratinocytes (NHEK-Ad, Cat #00192627, Lonza, Switzerland) were maintained in basal growth medium (KGM Gold keratinocyte Growth Medium Bulletkit, Cat #00192060) until the initiation of the proliferation experiment. The keratinocytes were seeded at a concentration of 1×10^3/24 well and allowed to equilibrate overnight (n=3/group). The cell culture medium was switched with fresh growth containing different concentrations of hydroxypropyl tetrahydropyrantriol (0.005%, 0.017%, and 0.05%), NAM (0.0012%, 0.004%, and 0.012%) alone and combination of hydroxypropyl tetrahydropyrantriol+niacinamide (PX/NAM). The cells were incubated for 48 hours and the keratinocytes were stained against KI67 primary antibody (Anti-Ki67 antibody, Cat #ab15580, Abcam) and goat anti-rabbit IgG Alexa Fluor®488 secondary antibody (Cat #150077, Abcam). The Ki67 and DAPI fluorescent signals were captured using a fluorescent microscope (DMi8, Leica). The Ki67 expression was quantified against total cell nucleus staining (DAPI staining solution, ab228549, Abcam) in order to calculate the number of proliferating cells vs. total number of cells.

Turning to `CC(O)C[C@@H]1OC[C@@H](O)[C@H](O)[C@H]1O` (stereo partly drawn) [hydroxypropyl tetrahydropyrantriol, C-beta-D-xylopyranoside-2-hydroxypropane], the sGAG release entry in test [1] is “increase sGAG release”. With `NC(=O)c1cccnc1` [niacinamide], the “skin cell proliferation (Ki67 vs total nuclei)” value in test [2] (0.004% niacinamide) and in test [2] (0.012% niacinamide) was “significantly increase proliferation” throughout.

The values are drawn from patent publication US20250302721A1, “ANTI-AGING EYE CREAM” (L'OREAL, priority 2024, published 2025).
